In one test the target is Glutamate NMDA receptor. The test is described as follows: Compound was evaluated for the inhibition of [3H]CGS-19,755 binding to NMDA receptor from rat brain synaptic membrane.
Test [1] has as its target Glutamate receptor ionotropic, AMPA (Rattus norvegicus, UniProt P19490+P19491+P19492+P19493).
Description: Compound was evaluated for the inhibition of [3H]AMPA binding to Ionotropic glutamate receptor AMPA from rat brain synaptic membrane.

Regarding `N[C@H](C(=O)O)[C@@H]1C[C@@H]1C(=O)O`, the IC50 at Glutamate NMDA receptor is 0.0052 µM.

Regarding `CC[C@H]1[C@H](C(=O)O)[C@@H]1[C@H](N)C(=O)O`, the IC50 (on Glutamate NMDA receptor; in test [1]) was 2 µM each time.

Consider `N[C@H](C(=O)O)[C@@H]1[C@@H](COCc2ccccc2)[C@@H]1C(=O)O`, for which the half-inhibitory concentration (IC50) on Glutamate NMDA receptor is 21 µM; in test [1] it was over 100 µM.

For the molecule `C=C[C@H]1[C@H](C(=O)O)[C@@H]1[C@H](N)C(=O)O`, the IC50 on Glutamate NMDA receptor is 1.2 µM; in test [1], 4 µM.

As to `C=C1C[C@@H]([C@H](N)C(=O)O)[C@@H](C(=O)O)C1`, the figures for the IC50 (on Glutamate NMDA receptor; in test [1]) were over 100 µM and 7.5 µM, respectively.

In the case of `COC[C@H]1[C@H](C(=O)O)[C@@H]1[C@H](N)C(=O)O`, the results for the IC50 (at Glutamate NMDA receptor; in test [1]) were 50 µM and 4 µM, respectively.

Molecule `C=C(C)[C@H]1CN[C@H](C(=O)O)[C@H]1CC(=O)O` [KAINIC ACID] gave an IC50 on Glutamate NMDA receptor of over 100 µM.

Take `CN[C@H](CC(=O)O)C(=O)O` [N-METHYL-D-ASPARTIC ACID (NMDA)]: the results for the IC50 (on Glutamate NMDA receptor; in test [1]) were 5.5 µM and over 100 µM, respectively.

For the origin of these results see ChEMBL document CHEMBL1129191, “Syntheses of trans-3-substituted-CCG-IV analogs and their characterization to ionotropic glutamate receptors” (Bioorg Med Chem Lett, 1996).
